Results taken from ChEMBL document CHEMBL4739717, “Methods of treating cartilage disorders through inhibition of clk and dyrk” (2020).
pEC50: −log10 of the molar value.

Columns and labels:
[1] = Induction of chondrogenesis in human MSC assessed as incubated for 6 days by rhodamine B and Nile red staining based imaging analysis; type: functional; conditions: bmmsc
[2] = target: Dual specificity tyrosine-phosphorylation-regulated kinase 1A (Homo sapiens, UniProt Q13627); assay: Inhibition of recombinant DYRK1A (unknown origin) using Ser/Thr 18 peptide as substrate incubated for 1 hr in presence of ATP by FRET assay
[3] = Effect on Wnt signaling pathway in human SW480 cells harbouring TCF/LEF luciferase reporter gene and SP5-Luc reporter gene incubated for 36 to 48 hrs by luminescence assay; type: cell-based
[4] = Induction of chondrogenesis in human MSC assessed as maximum activity at 100 nM incubated for 6 days by rhodamine B and Nile red staining based imaging analysis relative to control; type: functional; conditions: BMMSC, 144 h, time 6 day

Row | pEC50 [1] | pEC50 [2] | pEC50 [3] | Compound | Emax at 0.1 µM [4] [%]
1 | 7.52 | 9.00 | 6.40 | CC(C)C(=O)Nc1cncc(-c2cc3c(-c4cc5cnccc5[nH]4)n[nH]c3cn2)c1 | 61.2
2 | 7.00 | 7.70 | 6.43 | Fc1ccccc1-c1cncc2[nH]c(-c3n[nH]c4ncc(-c5cn[nH]c5)cc34)cc12 | 51.1
3 | 8.00 | 7.55 | 6.45 | O=C(Nc1cncc(-c2ccc3[nH]nc(-c4nc5c(-c6ccc(Cl)s6)ccnc5[nH]4)c3n2)c1)C1CCC1 | 102
4 | 7.00 | 7.36 | 7.96 | Cc1ccc(-c2cncc3[nH]c(-c4n[nH]c5cnc(-c6cncc(N)c6)cc45)nc23)s1 | 162
5 | 7.00 | 8.52 | 7.34 | c1cncc(-c2ccc3[nH]nc(-c4nc5c(-c6ccoc6)cncc5[nH]4)c3c2)c1 | 149
6 | 7.00 | 7.59 | 6.53 | CC(C)Nc1cncc(-c2ccc3[nH]nc(-c4nc5c(-c6ccoc6)ccnc5[nH]4)c3n2)c1 | 64.2
7 | 7.00 | 7.80 | 8.30 | CC(C)CC(=O)Nc1cncc(-c2ccc3[nH]nc(-c4nc5c(-c6cc(F)cc(CNS(C)(=O)=O)c6)cncc5[nH]4)c3c2)c1 | 118
8 | 7.00 | 7.48 | 7.88 | CCC(=O)Nc1cncc(-c2ccc3[nH]nc(-c4cc5c(-c6cccc(F)c6)ccnc5[nH]4)c3c2)c1 | 167
9 | 8.00 | 7.66 | < 5.00 | Cc1cn(-c2ccnc3[nH]c(-c4n[nH]c5ccc(-c6cncc(NC(=O)C(C)(C)C)c6)nc45)nc23)cn1 | 70.2
10 | 6.52 | 7.70 | < 5.00 | Cc1cn(-c2ccnc3[nH]c(-c4n[nH]c5ccc(-c6cncc(NC(=O)C7CCC7)c6)nc45)nc23)cn1 | 69.1
11 | 7.52 | 7.96 | 6.00 | FC1(F)CCN(Cc2cncc(-c3cnc4[nH]nc(-c5cc6c(-c7ccoc7)cccc6[nH]5)c4c3)c2)C1 | 72.1
12 | 8.00 | 8.52 | 5.47 | CN1CCN(c2nccc3[nH]c(-c4n[nH]c5cnc(-c6cncc(NC(=O)C7CCCCC7)c6)cc45)cc23)CC1 | 60.8
13 | 8.00 | 7.89 | 6.61 | CCC(=O)Nc1cncc(-c2cnc3[nH]nc(-c4cc5c(-c6cccc(F)c6)cncc5[nH]4)c3c2)c1 | 113
14 | 7.00 | 7.59 | 8.00 | Cn1cc(-c2cc3c(-c4nc5c(-c6cccc(F)c6)nccc5[nH]4)n[nH]c3cn2)cn1 | 110
15 | – | 7.52 | 5.28 | FC1(F)CCN(Cc2cncc(-c3ccc4[nH]nc(-c5cc6c(N7CCCCC7)ccnc6[nH]5)c4n3)c2)C1 | 37.6
16 | 7.00 | 7.96 | 6.18 | Nc1cncc(-c2ccc3[nH]nc(-c4cc5c(-c6ccncc6)nccc5[nH]4)c3c2)c1 | 76.8
17 | – | 8.00 | 8.29 | CC(C)C(=O)Nc1cncc(-c2ccc3[nH]nc(-c4nc5c(-c6cccnc6)cncc5[nH]4)c3c2)c1 | 34.4
18 | 7.00 | 7.92 | 8.00 | Cc1ccc(-c2cncc3[nH]c(-c4n[nH]c5cnc(-c6cncc(NC(=O)C7CCC7)c6)cc45)nc23)s1 | 231
19 | 7.00 | 8.10 | 7.39 | CC(C)(C)C(=O)Nc1cncc(-c2ccc3[nH]nc(-c4nc5c(N6CCCCC6)cncc5[nH]4)c3c2)c1 | 114
20 | 7.52 | 7.66 | 6.12 | FC1(F)CCN(Cc2cncc(-c3ccc4[nH]nc(-c5cc6c(N7CCCCC7)cccc6[nH]5)c4c3)c2)C1 | 160
21 | – | 7.66 | 5.28 | CN1CCN(c2nccc3[nH]c(-c4n[nH]c5ccc(-c6cncc(NC(=O)C7CCCCC7)c6)cc45)cc23)CC1 | 37.8
22 | 8.00 | 7.60 | 6.20 | CN(C)c1cncc(-c2ccc3[nH]nc(-c4nc5c(-c6cccc(F)c6)cncc5[nH]4)c3n2)c1 | 154
23 | – | 7.70 | < 5.00 | CC(C)(C)C(=O)Nc1cncc(-c2ccc3[nH]nc(-c4cc5c(-c6ccncc6)ccnc5[nH]4)c3c2)c1 | 44.4
24 | 7.52 | 8.22 | 5.53 | Nc1cncc(-c2cc3c(-c4cc5c(N6CCCCC6)cncc5[nH]4)n[nH]c3cn2)c1 | 93.5
25 | – | 7.66 | 6.61 | CCC(=O)Nc1cncc(-c2ccc3[nH]nc(-c4cc5c(-c6cc(F)cc(CNS(C)(=O)=O)c6)cncc5[nH]4)c3c2)c1 | 29.4
26 | – | 7.89 | < 5.00 | CC(C)CC(=O)Nc1cncc(-c2cc3c(-c4cc5cccnc5[nH]4)n[nH]c3cn2)c1 | 40.4

Row | pEC50 [1] | pEC50 [2] | pEC50 [3] | Compound | Emax at 0.1 µM [4] [%]
27 | 7.00 | 8.22 | 8.06 | Nc1cncc(-c2ccc3[nH]nc(-c4nc5c(-c6ccccc6F)nccc5[nH]4)c3c2)c1 | 61.9
28 | 8.00 | 7.77 | < 5.00 | CCCCC(=O)Nc1cncc(-c2cnc3[nH]nc(-c4cc5c(-c6ccncc6)cncc5[nH]4)c3c2)c1 | 70.4
29 | 7.52 | 7.14 | 7.70 | c1cncc(-c2cc3c(-c4nc5ccccc5[nH]4)n[nH]c3cn2)c1 | 80.5
30 | 7.00 | 7.82 | 7.15 | Cn1cc(-c2cc3c(-c4nc5c(-c6cccc(F)c6)cncc5[nH]4)n[nH]c3cn2)cn1 | 71
31 | 7.00 | 7.47 | 6.48 | O=C(Nc1cncc(-c2cc3c(-c4cc5c(-c6cccnc6)cccc5[nH]4)n[nH]c3cn2)c1)C1CC1 | 308
32 | 8.00 | 7.10 | 6.82 | Cc1ncc(-c2ccc3[nH]nc(-c4nc5c(-c6cccc(F)c6)cccc5[nH]4)c3n2)n1C | 112
33 | 7.00 | 7.62 | 7.64 | O=C(Cc1ccccc1)Nc1cncc(-c2ccc3[nH]nc(-c4nc5c(-c6cccc(F)c6)cncc5[nH]4)c3c2)c1 | 124
34 | 7.52 | 7.24 | 7.52 | Cc1ccncc1-c1cc2c(-c3nc4c(-c5cc(F)cc(CNS(C)(=O)=O)c5)cccc4[nH]3)n[nH]c2cn1 | 81.8
35 | – | 8.15 | 5.81 | c1cc2[nH]c(-c3n[nH]c4ncc(-c5cncc(CN6CCCCC6)c5)cc34)cc2cn1 | 39.7
36 | – | 7.47 | 6.26 | CS(=O)(=O)NCc1cc(F)cc(-c2cncc3[nH]c(-c4n[nH]c5ccc(-c6cncc(NC(=O)C7CCC7)c6)cc45)cc23)c1 | 14.5
37 | – | 7.82 | 8.74 | FC1(F)CCN(Cc2cncc(-c3ccc4[nH]nc(-c5nc6c(-c7ccsc7)cncc6[nH]5)c4c3)c2)C1 | 81.3
38 | – | 7.89 | 7.65 | Nc1cncc(-c2ccc3[nH]nc(-c4cc5c(-c6ccccn6)ccnc5[nH]4)c3c2)c1 | 46.1
39 | – | 7.24 | 6.24 | Fc1cccc(-c2cncc3[nH]c(-c4n[nH]c5ncc(-c6cccnc6)cc45)cc23)c1 | 35.6
40 | – | 7.57 | 7.35 | CCC(=O)Nc1cncc(-c2ccc3[nH]nc(-c4cc5c(-c6cccc(F)c6)cncc5[nH]4)c3c2)c1 | 33.5
41 | – | 7.66 | 7.70 | FC1(F)CCN(Cc2cncc(-c3ccc4[nH]nc(-c5nc6c(N7CCCCC7)cncc6[nH]5)c4c3)c2)C1 | 80.1
42 | – | 7.23 | 6.13 | Nc1cncc(-c2cnc3[nH]nc(-c4cc5c(-c6ccccc6F)ccnc5[nH]4)c3c2)c1 | 27.6
43 | – | 7.07 | < 5.00 | c1cncc(-c2cnc3[nH]nc(-c4nc5c(-c6cccnc6)cncc5[nH]4)c3c2)c1 | 62.9
44 | – | 7.80 | 5.67 | CN1CCN(c2nccc3[nH]c(-c4n[nH]c5ccc(-c6cncc(NC(=O)c7ccccc7)c6)cc45)cc23)CC1 | 34.6
45 | – | 7.12 | 6.15 | FC1(F)CCN(Cc2cncc(-c3cnc4[nH]nc(-c5cc6c(-c7ccncc7)cccc6[nH]5)c4c3)c2)C1 | 29.2
46 | – | 7.60 | 6.59 | CC(C)Nc1cncc(-c2ccc3[nH]nc(-c4cc5c(-c6cccnc6)ccnc5[nH]4)c3n2)c1 | 47.2
47 | – | 7.68 | 6.17 | CC(C)Nc1cncc(-c2ccc3[nH]nc(-c4cc5c(-c6cccnc6)cncc5[nH]4)c3c2)c1 | 41.9
48 | – | 8.15 | < 5.00 | CN1CCN(c2nccc3[nH]c(-c4n[nH]c5ncc(-c6cncc(NC(=O)C7CCCC7)c6)cc45)cc23)CC1 | 30.3
49 | – | 7.85 | 5.64 | CCNCc1cncc(-c2cnc3[nH]nc(-c4cc5c(-c6ccccc6F)cncc5[nH]4)c3c2)c1 | 37.3
50 | – | 7.48 | 5.72 | c1ncc(-c2ccc3[nH]nc(-c4cc5c(-c6ccoc6)nccc5[nH]4)c3c2)cn1 | 40.2
51 | – | 8.00 | 5.48 | c1cnc2[nH]c(-c3n[nH]c4ccc(-c5cncc(OCCN6CCCC6)c5)cc34)cc2c1 | 42.7
